Laboratory results from US6642392B1 (priority 1997, dated 2003).
Read-outs that look alike come from different tables or passages of the source.

How the values were obtained:
Assay type in all cases: in vivo
Phytophthora infestans = conditions: for Test D disease control rating: tomato late blight; for Test D disease control rating (100 = 100% disease control, 0 = no disease control): tomato seedlings sprayed to run-off, inoculated the following day, rating relative to controls, unmarked compounds (standard test rate)
Pyricularia oryzae = conditions: for Test C disease control rating: rice blast; for Test C disease control rating (100 = 100% disease control, 0 = no disease control): rice seedlings sprayed to run-off, inoculated the following day, rating relative to controls, unmarked compounds (standard test rate)
Botrytis cinerea = experiment: Test E: gray mold, preventive spray on cucumber seedlings; conditions: for Test E disease control rating: gray mold on cucumber; for Test E disease control rating (100 = 100% disease control, 0 = no disease control): cucumber seedlings sprayed to run-off, inoculated the following day, rating relative to controls, unmarked compounds (standard test rate)
How it was run: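 Preventive spray on cucumber seedlings used a suspension (3% acetone, 250 ppm Trem 014), applied to run-off one day before inoculation with Botrytis cinerea spores. Plants were held 48 h at 20° C in saturated air, then 5 days at 20° C. Percent disease control was scored relative to untreated plants.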

Puccinia recondita = experiment: Test B: wheat leaf rust, preventive spray on wheat seedlings; conditions: for Test B disease control rating: wheat leaf rust; for Test B disease control rating (100 = 100% disease control, 0 = no disease control): wheat seedlings sprayed to run-off, inoculated the following day, rating relative to controls, unmarked compounds (standard test rate)
How it was run: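 Preventive test: P. recondita spores were applied one day after a run-off spray of compound suspension on wheat seedlings. Plants had 24 h at 20 °C in saturated air plus 6 days in a 20 °C growth chamber. Scoring is % disease control (100 = full) relative to controls.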

[1] = system: Eiysiphe graminis f. sp. tritici; experiment: Test A: wheat powdery mildew, preventive spray on wheat seedlings; conditions: for Test A disease control rating: wheat powdery mildew; for Test A disease control rating (100 = 100% disease control, 0 = no disease control): wheat seedlings sprayed to run-off, inoculated the following day, rating relative to controls, unmarked compounds (standard test rate)
How it was run: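 Preventive test: seedlings inoculated with powdery mildew spores one day after run-off spraying of a suspension. Ratings after 7 days in a 20° C growth chamber express percent disease control versus controls.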

[2] = 100 = 100% disease control, 0 = no control, unmarked entries (standard test concentration)
[3] = 100 = 100% disease control, 0 = no control relative to controls, unmarked entries (standard test concentration)

Row | Compound | Test D disease control rating (Phytophthora infestans; tested at 40 ppm) [%] | Test C disease control rating (Pyricularia oryzae; tested at 40 ppm) [%] | Test E disease control rating (Botrytis cinerea; tested at 40 ppm) [%] | Test B disease control rating (Puccinia recondita; tested at 40 ppm) [%] | Test A disease control rating ([1]; tested at 40 ppm) [%] | Test D disease control rating (Phytophthora infestans; [2]) [%] | Test C disease control rating (Pyricularia oryzae; [2]) [%] | Test E disease control rating (Botrytis cinerea; [2]) [%] | Test B disease control rating (Puccinia recondita; [2]) [%] | Test A disease control rating [1, 3] [%] | also measured
1 | CCC1(C(=O)NC(C)COc2ccccc2I)C(C)C1(Cl)Cl (mixture of isomers) [87b] | 0 | 0 | 0 | 0 | 52 | – | – | – | – | – | –
2 | CCC1(C(=O)NC(C)COc2cccc(C)c2)C(C)C1(Cl)Cl (mixture of isomers) [compound 96] | 90 | 0 | 0 | 0 | 0 | – | – | – | – | – | –
3 | CCC1(C(=O)NCC=Cc2ccccc2CC#N)C(C)C1(Cl)Cl (stereo not shown) [compound 161] | 0 | 0 | 0 | 0 | 0 | – | – | – | – | – | –
4 | C=CCc1ccccc1OCC(C)NC(=O)C(C#N)C(C)(C)C (mixture of isomers) [25a] | – | – | – | – | – | 0 | 32 | 0 | 28 | 95 | –
5 | C[C@H](COc1ccc(F)c(F)c1)NC(=O)C(C#N)C(C)(C)C (single isomer, unassigned) [30a] | – | – | – | – | – | 0 | 100 | 0 | 0 | 0 | –
6 | C[C@H](COc1ccc(Cl)cc1)NC(=O)C(C#N)C(C)(C)C (single isomer, unassigned) [7c] | – | – | – | – | – | 9 | 86 | 45 | 0 | 0 | –
7 | CCCC(C#N)C(=O)NC(C)C(Oc1cc(F)ccc1C#N)c1ccccc1 (mixture of isomers) [compound 287] | – | – | – | – | – | – | – | – | – | – | Test D disease control rating (100 = 100% disease control, 0 = no disease control) (Phytophthora infestans): 23%; Test C disease control rating (100 = 100% disease control, 0 = no disease control) (Pyricularia oryzae): 97%; Test E disease control rating (100 = 100% disease control, 0 = no disease control) (Botrytis cinerea): 0%; Test B disease control rating (100 = 100% disease control, 0 = no disease control) (Puccinia recondita): 0%; Test A disease control rating (100 = 100% disease control, 0 = no disease control) [1]: 0%
8 | CCC1(C(=O)NC(C)COc2c(F)cccc2F)C(C)C1(Cl)Cl (stereo not shown) [105b] | 0 | 74 | 0 | 0 | 21 | – | – | – | – | – | –
9 | CCCc1ccccc1OCC(C)NC(=O)C1(CC)C(C)C1(Cl)Cl (mixture of isomers) [98a] | – | – | – | – | – | 24 | 53 | 0 | 0 | 0 | –
10 | C[C@H](COc1ccc(F)cc1Cl)NC(=O)C(C#N)C(C)(C)C (single isomer, unassigned) [37b] | – | – | – | – | – | 96 | 99 | 0 | 68 | 77 | –
11 | Cc1cccc(C#N)c1OCC(C)NC(=O)C(C#N)C(C)C(C)(C)C (mixture of isomers) [compound 280] | – | – | – | – | – | – | – | – | – | – | Test D disease control rating (100 = 100% disease control, 0 = no disease control) (Phytophthora infestans): 0%; Test C disease control rating (100 = 100% disease control, 0 = no disease control) (Pyricularia oryzae): 74%; Test E disease control rating (100 = 100% disease control, 0 = no disease control) (Botrytis cinerea): 0%; Test B disease control rating (100 = 100% disease control, 0 = no disease control) (Puccinia recondita): 0%; Test A disease control rating (100 = 100% disease control, 0 = no disease control) [1]: 56%
12 | C=CCc1ccccc1OCC(C)NC(=O)C(C#N)C(C)(C)C (mixture of isomers) [25b] | – | – | – | – | – | 24 | 97 | 0 | 0 | 63 | –
13 | CCC1(C(=O)NC(C)COc2ccccc2Br)C(C)C1(Cl)Cl (mixture of isomers) [84b] | 75 | 73 | 0 | 28 | 57 | – | – | – | – | – | –
14 | CCC1(C(=O)NC(C)COc2ccc(F)cc2Cl)C(C)C1(Cl)Cl (stereo not shown) [compound 121] | 0 | 53 | 0 | 0 | 71 | – | – | – | – | – | –
15 | CCC1(C(=O)NC(C)COc2c(F)cccc2F)C(C)C1(Cl)Cl (mixture of isomers) [105a] | – | – | – | – | – | 0 | 53 | 55 | 0 | 0 | –
16 | CC(COc1ccccc1)NC(=O)C(C#N)C(C)(C)C (single isomer, unassigned) [1c] | – | – | – | – | – | 16 | 73 | 0 | 85 | 60 | –
17 | CCC1(C(=O)NC(C)COc2ccccc2C)C(C)C1(Cl)Cl (mixture of isomers) [compound 95] | 0 | 94 | 0 | 86 | 52 | – | – | – | – | – | –
18 | C[C@H](COc1ccc(F)c(Cl)c1)NC(=O)C(C#N)C(C)(C)C (single isomer, unassigned) [183a] | – | – | – | – | – | 35 | 86 | 0 | 28 | 0 | –
19 | C[C@H](COc1cccc(Cl)c1Cl)NC(=O)C(C#N)C(C)(C)C (single isomer, unassigned) [31b] | – | – | – | – | – | 0 | 94 | 0 | 0 | 0 | –
20 | CCC1(C(=O)NC(C)COc2cc(F)ccc2C#N)C(C)C1(Cl)Cl (stereo not shown) [compound 245] | – | – | – | – | – | – | – | – | – | – | Test D disease control rating (100 = 100% disease control, 0 = no disease control) (Phytophthora infestans): 0%; Test C disease control rating (100 = 100% disease control, 0 = no disease control) (Pyricularia oryzae): 100%; Test E disease control rating (100 = 100% disease control, 0 = no disease control) (Botrytis cinerea): 0%; Test B disease control rating (100 = 100% disease control, 0 = no disease control) (Puccinia recondita): 0%; Test A disease control rating (100 = 100% disease control, 0 = no disease control) [1]: 72%
21 | CCC1(C(=O)NC(C)COc2ccccc2SC(F)(F)C(F)F)C(C)C1(Cl)Cl (mixture of isomers) [compound 91] | – | – | – | – | – | 0 | 53 | 0 | 0 | 74 | –
22 | CCC1(C(=O)NC(C)COc2cc(Cl)ccc2C#N)C(C)C1(Cl)Cl (stereo not shown) [compound 239] | – | – | – | – | – | – | – | – | – | – | Test D disease control rating (100 = 100% disease control, 0 = no disease control) (Phytophthora infestans): 88%; Test C disease control rating (100 = 100% disease control, 0 = no disease control) (Pyricularia oryzae): 97%; Test E disease control rating (100 = 100% disease control, 0 = no disease control) (Botrytis cinerea): 0%; Test B disease control rating (100 = 100% disease control, 0 = no disease control) (Puccinia recondita): 0%; Test A disease control rating (100 = 100% disease control, 0 = no disease control) [1]: 0%
23 | CCC1(C(=O)NC(C)COc2c(F)cccc2C#N)C(C)C1(Cl)Cl (mixture of isomers) [compound 128] | – | – | – | – | – | 13 | 74 | 0 | 0 | 86 | –
